How the values were obtained:
[1] = Compound cytotoxicity, XTT-based colorimetric assay; format: cell-based; details: human, uninfected MT2 cells, day 4, XTT
Summary of the method: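 Run under the antiviral-assay protocol but without virus. Viability was read on day 4 and CC50 values were derived from the readout.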

[2] = system: recombinant NL4-3 virus (nef section replaced with Renilla luciferase gene) in MT-2 cells; assay: HIV cell culture assay (antiviral activity, luciferase readout); format: cell-based
Summary of the method: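 Serial compound dilutions tested in MT-2 cells infected for 4-5 days with 293T-derived NL4-3 virus carrying Renilla luciferase in place of part of nef. Antiviral activity quantified as luciferase activity, read with a live-cell substrate.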

[3] = Renilla, NL43, MT-2 cells infected for 4-5 days with recombinant NL4-3 Renilla luciferase virus

Row | Structure (SMILES) | CC50 at 4 days [1] [µM] | EC50 [2, 3] [nM] | CC50 at 4 day [1] [nM] | EC50 ([2]; MT-2 cells infected for 4-5 days with recombinant NL4-3 Renilla luciferase virus) [nM]
1 | COc1ccc(N(C)C(=O)[C@H](Cc2ccccc2)NC(=O)NS(=O)(=O)Nc2cccc(OC)c2)cc1 [JB-20] | > 100 | 100 | – | –
2 | COc1ccc(N(C)C(=O)[C@H](Cc2ccccc2)NC(=O)NS(=O)(=O)Nc2ccc3ncsc3c2)cc1 [CA-24] | > 100 | 60 | – | –
3 | CCOc1ccc(N(CC)C(=O)[C@H](Cc2ccccc2)NC(=O)NS(=O)(=O)N2CCc3ccccc32)cc1 [JB-73] | > 33.3 | 50 | – | –
4 | Cc1ccc(N(C)C(=O)[C@H](Cc2cc(F)cc(F)c2)NC(=O)NS(=O)(=O)N2CCc3cccnc32)cc1Cl [BB-20] | 60.7 | 60 | – | –
5 | CN(C(=O)[C@H](Cc1cc(F)cc(F)c1)NC(=O)NS(=O)(=O)N1CCc2cccnc21)c1ccc(C(N)=O)cc1 [BB-5] | > 100 | 4910 | – | –
6 | COc1ccc(N(C)C(=O)[C@H](Cc2ccccc2)NC(=O)NS(=O)(=O)Nc2cccc(F)c2)cc1 [CA-10] | > 100 | 70 | – | –
7 | COc1ccc(N(C)C(=O)[C@H](Cc2ccccc2)NC(=O)NS(=O)(=O)Nc2ccccc2-c2ccccc2)cc1 [CA-31] | > 33.3 | 1170 | – | –
8 | CCc1ccc(CN(C)S(=O)(=O)NC(=O)N[C@@H](Cc2ccccc2)C(=O)N(C)c2ccc(OC)cc2)cc1 [JB-41] | > 33.3 | 5060 | – | –
9 | COc1ccc(N(C)C(=O)[C@H](Cc2cc(F)cc(F)c2)NC(=O)NS(=O)(=O)N2CCc3ccncc32)cc1 [BB-10] | > 100 | 1080 | – | –
10 | CN(C(=O)[C@H](Cc1ccccc1)NC(=O)NS(=O)(=O)N1CCc2cccnc21)c1ccc2scnc2c1 [ZY-2] | > 53 | 50 | – | –
11 | COc1ccc(N(C)C(=O)[C@H](Cc2ccccc2)NC(=O)NS(=O)(=O)NCc2cc(C)on2)cc1 [JB-59] | > 100 | 1860 | – | –
12 | Cc1cnc(CNS(=O)(=O)NC(=O)N[C@@H](Cc2cc(F)cc(F)c2)C(=O)N(C)c2ccc3scnc3c2)cn1 [CA-150] | > 100 | 460 | – | –
13 | CN(C(=O)[C@H](Cc1ccccc1)NC(=O)NS(=O)(=O)Nc1ccccc1Cl)c1ccc2ncccc2c1 [JB-10] | > 100 | 50 | – | –
14 | COc1ccc(N(C)C(=O)[C@H](Cc2ccccc2)NC(=O)NS(=O)(=O)Nc2ccccc2F)cc1 [CA-7] | > 100 | 140 | – | –
15 | COc1ccc(N(C)C(=O)[C@H](Cc2ccccc2)NC(=O)NS(=O)(=O)N2CCc3ccccc3C2)cc1 [JB-7] | > 100 | 200 | – | –
16 | COc1ccc(N(C)C(=O)[C@H](Cc2ccccc2)NC(=O)NS(=O)(=O)NCc2cnc3ccccc3c2)cc1 [JB-45] | > 50 | 9450 | – | –
17 | CN1CCN(S(=O)(=O)NC(=O)N[C@@H](Cc2cc(F)cc(F)c2)C(=O)N(C)c2ccc3scnc3c2)CC1 [CA-122] | > 33.3 | 280 | – | –
18 | CN(C(=O)[C@H](Cc1cc(F)cc(F)c1)NC(=O)N(C)S(=O)(=O)N1CCc2cccnc21)c1ccc2scnc2c1 [BB-25] | > 33.3 | 530 | – | –
19 | COc1ccc(N(C)C(=O)[C@H](Cc2cc(F)cc(F)c2)NC(=O)NS(=O)(=O)N2CCc3c(Cl)ccnc32)cc1 [BB-4] | 61.9 | 420 | – | –

Row | Structure (SMILES) | CC50 at 4 days [1] [µM] | EC50 [2, 3] [nM] | CC50 at 4 day [1] [nM] | EC50 ([2]; MT-2 cells infected for 4-5 days with recombinant NL4-3 Renilla luciferase virus) [nM]
20 | CCN(C)S(=O)(=O)NC(=O)N[C@@H](Cc1cc(F)cc(F)c1)C(=O)N(C)c1ccc2scnc2c1 [CA-154] | > 50 | 30 | – | –
21 | CN(C(=O)[C@H](Cc1cc(F)cc(F)c1)NC(=O)NS(=O)(=O)N1CCc2cccnc21)c1ccc(C2CC2)cc1 [GW-10] | 91 | 30 | – | –
22 | CC(C)NS(=O)(=O)NC(=O)N[C@@H](Cc1cc(F)cc(F)c1)C(=O)N(C)c1ccc2scnc2c1 [CA-136] | > 100 | 60 | – | –
23 | COc1ccc(N(C)C(=O)[C@H](Cc2ccccc2)NC(=O)NS(=O)(=O)NCC(=O)N2CCCC2)cc1 [CA-51] | > 100 | 4590 | – | –
24 | CN(C(=O)[C@H](Cc1cc(F)cc(F)c1)NC(=O)NS(=O)(=O)N1CCCC1)c1ccc2scnc2c1 [VN-22] | > 100 | 50 | – | –
25 | COc1ccc(N(C)C(=O)[C@H](Cc2ccccc2)NC(=O)NS(=O)(=O)N(C)c2cccc(C)c2)cc1 [JB-25] | > 100 | 80 | – | –
26 | Cc1ncc(N(C)C(=O)[C@H](Cc2cc(F)cc(F)c2)NC(=O)NS(=O)(=O)N2CCc3cccnc32)cn1 [GW-14] | > 100 | 1610 | – | –
27 | O=C(N[C@@H](Cc1cc(F)cc(F)c1)C(=O)N(CCOCc1ccccc1)c1ccc2scnc2c1)NS(=O)(=O)N1CCc2cccnc21 [BB-34] | 70.6 | 40 | – | –
28 | COc1ccc(N(C)C(=O)[C@H](Cc2ccccc2)NC(=O)NS(=O)(=O)Nc2ccc(OC(F)(F)F)cc2)cc1 [CA-34] | > 33.3 | 180 | – | –
29 | COc1ccc(NS(=O)(=O)NC(=O)N[C@@H](Cc2ccccc2)C(=O)N(C)c2ccc(OC)cc2)cc1 [JB-27] | > 100 | 150 | – | –
30 | COc1ccc(N(C)C(=O)[C@H](Cc2ccccc2)NC(=O)NS(=O)(=O)Nc2ccccc2Cl)cc1 [JB-5] | > 100 | 100 | – | –
31 | Cc1ccc(NS(=O)(=O)NC(=O)N[C@@H](Cc2cc(F)cc(F)c2)C(=O)N(C)c2ccc3scnc3c2)cc1 [ZY-10] | > 100 | 50 | – | –
32 | CN(C(=O)[C@H](Cc1cc(F)cc(F)c1)NC(=O)NS(=O)(=O)N1CC(F)(F)C1)c1ccc2scnc2c1 [CA-130] | > 100 | 450 | – | –
33 | COc1ccc(N(C)C(=O)[C@H](Cc2ccccc2)NC(=O)NS(=O)(=O)N(C)c2ccccc2C)cc1 [JB-18] | > 100 | 560 | – | –
34 | CN(C(=O)[C@H](Cc1cc(F)cc(F)c1)NC(=O)NS(=O)(=O)N1CCc2cccc(F)c21)c1ccc2scnc2c1 [ZY-15] | > 33.3 | 30 | – | –
35 | CN(C(=O)[C@H](Cc1cc(F)cc(F)c1)NC(=O)NS(=O)(=O)N1CCCc2cccnc21)c1ccc2scnc2c1 [VN-9] | > 100 | 10 | – | –
36 | CC1Cc2cccnc2N1S(=O)(=O)NC(=O)N[C@@H](Cc1cc(F)cc(F)c1)C(=O)N(C)c1ccc2scnc2c1 (single isomer, unassigned) [VN-6] | – | – | > 1000 | 20
37 | CN(C(=O)[C@H](Cc1cc(F)cc(F)c1)NC(=O)NS(=O)(=O)NC1CC1)c1ccc2scnc2c1 [CA-142] | > 100 | 40 | – | –
38 | CCc1ccc(N(C)C(=O)[C@H](Cc2cc(F)cc(F)c2)NC(=O)NS(=O)(=O)N2CCc3cccnc32)cc1 [BB-2] | 96 | 20 | – | –

Row | Structure (SMILES) | CC50 at 4 days [1] [µM] | EC50 [2, 3] [nM] | CC50 at 4 day [1] [nM] | EC50 ([2]; MT-2 cells infected for 4-5 days with recombinant NL4-3 Renilla luciferase virus) [nM]
39 | CN(C(=O)[C@H](Cc1cc(F)cc(F)c1)NC(=O)NS(=O)(=O)N1CCc2cccnc21)c1ccc2c(c1)OCCO2 [ZY-24] | 53.4 | 60 | – | –
40 | COc1ccc(N(C)C(=O)[C@H](Cc2ccccc2)NC(=O)NS(=O)(=O)Nc2ccc(OCc3ccccc3)cc2)cc1 [CA-32] | > 33.3 | 980 | – | –
41 | CCCNS(=O)(=O)NC(=O)N[C@@H](Cc1cc(F)cc(F)c1)C(=O)N(C)c1ccc2scnc2c1 [CA-146] | > 100 | 50 | – | –
42 | Cc1cc(N(C)C(=O)[C@H](Cc2cc(F)cc(F)c2)NC(=O)NS(=O)(=O)N2CCc3cccnc32)ccc1F [BB-17] | 91.2 | 70 | – | –
43 | COc1ccc(N(C)C(=O)[C@H](Cc2ccccc2)NC(=O)NS(=O)(=O)N2CCc3c(Cl)cccc32)cc1 [CA-1] | 21.4 | 250 | – | –
44 | CN(C(=O)[C@H](Cc1cc(F)cc(F)c1)NC(=O)NS(=O)(=O)NCc1cccnc1)c1ccc2scnc2c1 [CA-135] | > 100 | 1530 | – | –
45 | CC(C)CN(C)S(=O)(=O)NC(=O)N[C@@H](Cc1cc(F)cc(F)c1)C(=O)N(C)c1ccc2scnc2c1 [CA-140] | > 100 | 40 | – | –
46 | COc1ccc(N(C)C(=O)[C@H](Cc2ccccc2)NC(=O)NS(=O)(=O)Nc2cccc(Oc3ccccc3)c2)cc1 [CA-36] | > 33.3 | 200 | – | –
47 | CC(=O)NCCNS(=O)(=O)NC(=O)N[C@@H](Cc1cc(F)cc(F)c1)C(=O)N(C)c1ccc2scnc2c1 [CA-137] | > 100 | 1220 | – | –
48 | Cc1nc2cc(N(C)C(=O)[C@H](Cc3cc(F)cc(F)c3)NC(=O)NS(=O)(=O)N3CCc4cccnc43)ccc2s1 [ZY-23] | > 100 | 80 | – | –
49 | COc1ccc(N(C)C(=O)[C@H](Cc2cc(F)cc(F)c2)NC(=O)NS(=O)(=O)N2CCc3cccnc32)cc1 [BB-31] | > 33.3 | 10 | – | –
50 | CN(C)C(=O)[C@@H]1CCCN1S(=O)(=O)NC(=O)N[C@@H](Cc1cc(F)cc(F)c1)C(=O)N(C)c1ccc2scnc2c1 [BB-22] | > 100 | 380 | – | –
51 | COc1ccc(N(C)C(=O)[C@H](Cc2ccccc2)NC(=O)NS(=O)(=O)Nc2ccc(-c3ccccc3)cc2)cc1 [CA-29] | > 33.3 | 3260 | – | –
52 | COc1ccc(N(C)C(=O)[C@H](Cc2ccccc2)NC(=O)NS(=O)(=O)Nc2ccc(Oc3ccccc3)cc2)cc1 [CA-18] | > 33.3 | 350 | – | –
53 | COc1ccc(N(C)C(=O)[C@H](Cc2ccccc2)NC(=O)NS(=O)(=O)N2CCCCC2)cc1 [JB-14] | > 100 | 690 | – | –
54 | Cc1cc(N(C)C(=O)[C@H](Cc2cc(F)cc(F)c2)NC(=O)NS(=O)(=O)N2CCc3cccnc32)ccc1Cl [BB-16] | 56.3 | 30 | – | –
55 | COc1ccc(N(C)C(=O)[C@H](Cc2ccccc2)NC(=O)NS(=O)(=O)N(C)c2ccc(OC)cc2)cc1 [JB-28] | > 100 | 210 | – | –
56 | COc1ccc(N(C)C(=O)[C@H](Cc2ccccc2)NC(=O)NS(=O)(=O)Nc2cccc(Cl)c2Cl)cc1 [CA-30] | > 100 | 80 | – | –
57 | COc1ccc(N(C)C(=O)[C@H](Cc2ccccc2)NC(=O)NS(=O)(=O)Nc2ccc(-n3cccc3)cc2)cc1 [CA-45] | > 33.3 | 520 | – | –

From patent publication US10221129B2, “Inhibitors of human immunodeficiency virus replication” (ViiV HEALTHCARE UK (NO.5) LIMITED, priority 2015, dated 2019)
